IC50 data for 19 molecules are collected here from patent US11702422B2, “Imidazopyridazines as modulators of IL-17” (Janssen Pharmaceutica NV, priority 2020, dated 2023).

The target of assay [1] is IL-17A(FLAG-Tagged): IL-17RA(His-Tagged) (Homo sapiens, UniProt Q16552, K93Q). Put plainly: IL-17A(FLAG-Tagged): IL-17RA(His-Tagged) Binding Disruption Eu-HTRF Assay. Conditions: IL-17A/IL-17RA binding disruption, simple average if tested more than once. The procedure, abridged: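 IC50 comes from a one-site competition fit of the HTRF 665/620 nm ratio. Compound dilutions (2-fold, 22 points) were held 1 h rt with FLAG-tagged IL-17A dimer, then His-tagged IL-17RA plus Eu-cryptate anti-FLAG and D2 anti-His antibodies were added for 2 h rt.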

Assay [2] concerns IL-17A-induced G-CSF production in human normal keratinocyte (NHK). As to the kind of experiment: NHK Assay: IL-17A-induced G-CSF production in human normal keratinocytes. It counts as cell-based. Conditions: 24 h, adult normal human keratinocytes, IL-17A 5 ng/mL, simple average if tested more than once. The procedure, abridged: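 HTRF read-out of supernatant G-CSF, quantified from a standard curve, gave IC50 values. Adult keratinocytes, 3000-4000 cells/well, received human IL-17A (5 ng/mL final) pre-mixed 1 h at rt with compound, in 5% FBS and 0.2% DMSO, 24 h at 37° C.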

UniProt Q16552, sequence (Q16552 with tags, fused parts or gaps K93Q): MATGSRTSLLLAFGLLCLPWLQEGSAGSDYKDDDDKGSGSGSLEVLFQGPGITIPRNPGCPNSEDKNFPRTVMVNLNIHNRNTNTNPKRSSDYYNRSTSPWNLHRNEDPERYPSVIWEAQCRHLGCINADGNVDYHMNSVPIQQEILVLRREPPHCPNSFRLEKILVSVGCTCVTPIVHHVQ

`Cc1nonc1C(=O)N[C@H](c1cn2ncc([C@H](NC(=O)CCC(F)F)C3CC3)cc2n1)C1CCC(F)(F)CC1` [Example 250, N—((S)-(7-((R)-Cyclopropyl(4,4-difluorobutanamido)methyl)imidazo[1,2-b]pyridazin-2-yl)(4,4-difluorocyclohexyl)methyl)-4-methyl-1,2,5-oxadiazole-3-carboxamide]: the half-inhibitory concentration (IC50) (as a rule, the midpoint of a concentration-inhibition curve) in assay [1] worked out at 0.098 µM; in assay [2] (Homo sapiens, Keratinocyte), 0.39 µM.

`Cc1nonc1C(=O)N[C@H](c1cn2ncc([C@H](NC(=O)CC3(C(F)(F)F)CC3)C3CC3)cc2n1)C1CCC(F)(F)CC1` [Example 245, N—((S)-(7-((R)-Cyclopropyl(2-(1-(trifluoromethyl)cyclopropyl)acetamido)methyl)imidazo[1,2-b]pyridazin-2-yl)(4,4-difluorocyclohexyl)methyl)-4-methyl-1,2,5-oxadiazole-3-carboxamide]: the IC50 amounted to 0.14 µM in assay [1] and 0.29 µM in assay [2] (Homo sapiens, Keratinocyte).

Turning to `CC(C)n1nccc1C(=O)N[C@H](c1cn2ncc(C(NC(=O)CC3CC(F)(F)C3)C3(C#N)CC3)cc2n1)C1CCC(F)(F)CC1` (single isomer, unassigned) [Example 431, N—((S)-(7-((R*)-(1-Cyanocyclopropyl)(2-(3,3-difluorocyclobutyl)acetamido)methyl)imidazo[1,2-b]pyridazin-2-yl)(4,4-difluorocyclohexyl)methyl)-1-isopropyl-1H-pyrazole-5-carboxamide], the IC50 in assay [1] was 3.8 µM; in assay [2], over 20 µM.

Turning to `CC(C)n1nccc1C(=O)N[C@@H](CC(C)(C)C(F)(F)F)c1cn2ncc([C@H](NC(=O)CC3CC(F)(F)C3)C3CC3)cc2n1` [Example 543, N—((S)-1-(7-((R)-Cyclopropyl(2-(3,3-difluorocyclobutyl)acetamido)methyl)imidazo[1,2-b]pyridazin-2-yl)-4,4,4-trifluoro-3,3-dimethylbutyl)-1-isopropyl-1H-pyrazole-5-carboxamide], the IC50 in assay [1] is 0.18 µM; in assay [2] (Homo sapiens, Keratinocyte), 0.072 µM.

In the case of `Cc1cnccc1C(=O)N[C@H](c1cn2ncc([C@H](NC(=O)CCC(F)(F)F)C3CC3)cc2n1)C1CCC(F)(F)CC1` [Example 214, N—((S)-(7-((R)-Cyclopropyl(4,4,4-trifluorobutanamido)methyl)imidazo[1,2-b]pyridazin-2-yl)(4,4-difluorocyclohexyl)methyl)-3-methylisonicotinamide], the IC50 is 2.9 µM in assay [1] and over 20 µM in assay [2] (Homo sapiens, Keratinocyte).

For `CO[C@@H](C)[C@@H](NC(=O)CC1CC(F)(F)C1)c1cnn2cc([C@@H](NC(=O)c3nonc3C)C3CCC(F)(F)CC3)nc2c1` [Example 323, N—((S)-(7-((1S,2S)-1-(2-(3,3-Difluorocyclobutyl)acetamido)-2-methoxypropyl)imidazo[1,2-b]pyridazin-2-yl)(4,4-difluorocyclohexyl)methyl)-4-methyl-1,2,5-oxadiazole-3-carboxamide], the IC50 in assay [1] was determined as 0.12 µM; in assay [2] (Homo sapiens, Keratinocyte), 0.67 µM.

For `Cc1nonc1C(=O)N[C@H](c1cn2ncc([C@H](NC(=O)[C@@H]3CC[C@H]3F)C3CC3)cc2n1)C1CCC(F)(F)CC1` (relative stereo) [Example 335, N—((S)-(7-((R)-Cyclopropyl((1S*,2R*)-2-fluorocyclobutane-1-carboxamido)methyl)imidazo[1,2-b]pyridazin-2-yl)(4,4-difluorocyclohexyl)methyl)-4-methyl-1,2,5-oxadiazole-3-carboxamide], the half-maximal inhibitory concentration (IC50) in assay [1] is 7.5 µM; in assay [2] (Homo sapiens, Keratinocyte), over 20 µM.

In the case of `O=C(CCC(F)(F)F)NC(c1cnn2cc([C@@H](NC(=O)c3cnnn3CCC(F)(F)F)C3CCC(F)(F)CC3)nc2c1)C1CC1` (single isomer, unassigned) [Example 71, N—((S)-(7-((R*)-Cyclopropyl(4,4,4-trifluorobutanamido)methyl)imidazo[1,2-b]pyridazin-2-yl)(4,4-difluorocyclohexyl)methyl)-1-(3,3,3-trifluoropropyl)-1H-1,2,3-triazole-5-carboxamide], the half-maximal inhibitory concentration (IC50) in assay [1] stood at 0.1 µM; in assay [2] (Homo sapiens, Keratinocyte), 0.18 µM.

With `O=C(CCC(F)(F)F)N[C@@H](c1cnn2cc([C@@H](NC(=O)[C@H]3C[C@H]3C(F)F)C3CCC(F)(F)CC3)nc2c1)C1CC1` (relative stereo) [Example 359, (1S*,2R*)—N—((S)-(7-((R*)-Cyclopropyl(4,4,4-trifluorobutanamido)methyl)imidazo[1,2-b]pyridazin-2-yl)(4,4-difluorocyclohexyl)methyl)-2-(difluoromethyl)cyclopropane-1-carboxamide], the IC50 is 1.1 µM in assay [1] and 10 µM in assay [2] (Homo sapiens, Keratinocyte).

Regarding `O=C(CCC(F)(F)F)N[C@@H](c1cnn2cc([C@@H](NC(=O)[C@@H]3C[C@@H]3CF)C3CCC(F)(F)CC3)nc2c1)C1CC1` (relative stereo) [Example 365, (1R*,2S*)—N—((S)-(7-((R*)-Cyclopropyl(4,4,4-trifluorobutanamido)methyl)imidazo[1,2-b]pyridazin-2-yl)(4,4-difluorocyclohexyl)methyl)-2-(fluoromethyl)cyclopropane-1-carboxamide], the IC50 is 1.2 µM in assay [1] and over 20 µM in assay [2] (Homo sapiens, Keratinocyte).

`[2H]C([2H])([2H])C([2H])([2H])n1nccc1C(=O)N[C@H](c1cn2ncc(C(CC)NC(=O)CC3CC(F)(F)C3)cc2n1)C1CCC(F)(F)CC1` (single isomer, unassigned) [Example 506, N—((S)-(7-((R*)-1-(2-(3,3-Difluorocyclobutyl)acetamido)propyl)imidazo[1,2-b]pyridazin-2-yl)(4,4-difluorocyclohexyl)methyl)-1-(ethyl-d5)-1H-pyrazole-5-carboxamide]: the IC50 was 0.2 µM in assay [1] and 0.13 µM in assay [2] (Homo sapiens, Keratinocyte).

Consider `CC(C)n1nccc1C(=O)N[C@H](c1cn2ncc([C@H](NC(=O)COC3CC(F)(F)C3)C3CC3)cc2n1)C1CCC(F)(F)CC1` [Example 309, N—((S)-(7-((R)-Cyclopropyl(2-(3,3-difluorocyclobutoxy)acetamido)methyl)imidazo[1,2-b]pyridazin-2-yl)(4,4-difluorocyclohexyl)methyl)-1-isopropyl-1H-pyrazole-5-carboxamide], for which the IC50 was determined as 0.1 µM in assay [1] and 0.29 µM in assay [2] (Homo sapiens, Keratinocyte).

For `COc1cc(C(=O)N[C@H](c2cn3ncc([C@H](NC(=O)CCC(F)(F)F)C4CC4)cc3n2)C2CCC(F)(F)CC2)cnn1` [Example 459, N—((S)-(7-((R)-Cyclopropyl(4,4,4-trifluorobutanamido)methyl)imidazo[1,2-b]pyridazin-2-yl)(4,4-difluorocyclohexyl)methyl)-6-methoxypyridazine-4-carboxamide], the IC50 in assay [1] was 1.3 µM; in assay [2] (Homo sapiens, Keratinocyte) it was over 20 µM.

Take `Cc1ccccc1C(=O)N[C@H](c1cn2ncc([C@H](NC(=O)CCC(F)(F)F)C3CC3)cc2n1)C1CCC(F)(F)CC1` [Example 40, N—((S)-(7-((R)-Cyclopropyl(4,4,4-trifluorobutanamido)methyl)imidazo[1,2-b]pyridazine-2-yl)(4,4-difluorocyclohexyl)methyl)-2-methylbenzamide]: the IC50 in assay [1] stood at 0.41 µM; in assay [2] (Homo sapiens, Keratinocyte), 1.2 µM.

For `Cc1nonc1C(=O)N[C@H](c1cn2ncc([C@H](NC(=O)C[C@H]3C[C@H](F)C3)C3CC3)cc2n1)C1CCC(F)(F)CC1` (single isomer, unassigned) [Example 266], the half-inhibitory concentration (IC50) in assay [1] worked out at 0.056 µM; in assay [2] (Homo sapiens, Keratinocyte) it was 0.29 µM.

Take `CC(n1nccc1C(=O)N[C@H](c1cn2ncc([C@H](NC(=O)CCC(F)(F)F)C3CC3)cc2n1)C1CCC(F)(F)CC1)C(F)(F)F` (single isomer, unassigned) [Example 116, N—((S)-(7-((R)-Cyclopropyl(4,4,4-trifluorobutanamido)methyl)imidazo[1,2-b]pyridazin-2-yl)(4,4-difluorocyclohexyl)methyl)-1-((S*)-1,1,1-trifluoropropan-2-yl)-1H-pyrazole-5-carboxamide]: the values for the 50% inhibitory concentration (IC50) in assay [1] and in assay [2] were 0.1 µM and 0.21 µM, respectively.

As for `CC(C)Oc1nocc1C(=O)N[C@H](c1cn2ncc([C@H](NC(=O)CCC(F)F)C3CC3)cc2n1)C1CCC(F)(F)CC1` [Example 302, N—((S)-(7-((R)-Cyclopropyl(4,4-difluorobutanamido)methyl)imidazo[1,2-b]pyridazin-2-yl)(4,4-difluorocyclohexyl)methyl)-3-isopropoxyisoxazole-4-carboxamide], the half-maximal inhibitory concentration (IC50) in assay [1] is 1.2 µM; in assay [2] (Homo sapiens, Keratinocyte), over 20 µM.

For the molecule `O=C(CCC(F)(F)F)N[C@@H](c1cnn2cc([C@@H](NC(=O)c3conc3C3COC3)C3CCC(F)(F)CC3)nc2c1)C1CC1` [Example 235, N—((S)-(7-((R)-Cyclopropyl(4,4,4-trifluorobutanamido)methyl)imidazo[1,2-b]pyridazin-2-yl)(4,4-difluorocyclohexyl)methyl)-3-(oxetan-3-yl)isoxazole-4-carboxamide], the concentration for half-maximal inhibition (IC50) was found to be 0.1 µM in assay [1] and 0.22 µM in assay [2] (Homo sapiens, Keratinocyte).

In the case of `Cc1nonc1C(=O)N[C@H](c1cn2ncc([C@H](NC(=O)CC3CC(F)(F)C3)C3CC3)cc2n1)C1CCC(F)(F)CC1` [Example 142, N—((S)-(7-((R)-Cyclopropyl(2-(3,3-difluorocyclobutyl)acetamido)methyl)imidazo[1,2-b]pyridazin-2-yl)(4,4-difluorocyclohexyl)methyl)-4-methyl-1,2,5-oxadiazole-3-carboxamide], the IC50 in assay [1] stood at 0.034 µM; in assay [2] (Homo sapiens, Keratinocyte) it was 0.14 µM.
